Measured values: paper PMC6979384, “Characterization of the plant homeodomain (PHD) reader family for their histone tail interactions” (Epigenetics & Chromatin, 2020)

Legend:
Assay in all cases: Histone peptide microarray
Type in all cases: binding, human
AIRE (PP) = details: GST-tagged AIRE (PP); sheet Array Heatmap; each array performed twice, total n = 4
How it was run: (§1)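 GST-tagged PHD readers, 0.5 μM, probed on a microarray of 293 synthetic histone peptides carrying single or combinatorial PTMs (optimized Petell protocol). Signals are averaged over 4 replicates and expressed as relative binding.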

BAZ2B = details: GST-tagged BAZ2B; sheet Array Heatmap; each array performed twice, total n = 4
How it was run: as §1

BPTF (PB) = details: GST-tagged BPTF (PB = PHD + Bromodomain); sheet Array Heatmap; each array performed twice, total n = 4
How it was run: as §1

CHD4 (PPCC) = details: GST-tagged CHD4 (PPCC = Dual PHD + Dual Chromodomain); sheet Array Heatmap; each array performed twice, total n = 4
How it was run: as §1

CHD5 (PCC) = details: GST-tagged CHD5 (PCC = PHD + Dual Chromodomain); sheet Array Heatmap; each array performed twice, total n = 4
How it was run: as §1

CHD5 (PPCC) = details: GST-tagged CHD5 (PPCC = Dual PHD + Dual Chromodomain); sheet Array Heatmap; each array performed twice, total n = 4
How it was run: as §1

DIDO1 = details: GST-tagged DIDO1; sheet Array Heatmap; each array performed twice, total n = 4
How it was run: as §1

DPF2 (PPC2W2) = details: GST-tagged DPF2 (PPC2W2 = Dual PHD + C2W2-type Zn-finger); sheet Array Heatmap; each array performed twice, total n = 4
How it was run: as §1

ING1 = details: GST-tagged ING1; sheet Array Heatmap; each array performed twice, total n = 4
How it was run: as §1

ING2 = details: GST-tagged ING2; sheet Array Heatmap; each array performed twice, total n = 4
How it was run: as §1

ING3 = details: GST-tagged ING3; sheet Array Heatmap; each array performed twice, total n = 4
How it was run: as §1

ING4 = details: GST-tagged ING4; sheet Array Heatmap; each array performed twice, total n = 4
How it was run: as §1

ING5 = details: GST-tagged ING5; sheet Array Heatmap; each array performed twice, total n = 4
How it was run: as §1

KDM4C (TTP) = details: GST-tagged KDM4C (TTP = Tandem Tudor domain + PHD); sheet Array Heatmap; each array performed twice, total n = 4
How it was run: as §1

KDM5A (1) = details: GST-tagged KDM5A (1); sheet Array Heatmap; each array performed twice, total n = 4
How it was run: as §1

KDM5A (3) = details: GST-tagged KDM5A (3); sheet Array Heatmap; each array performed twice, total n = 4
How it was run: as §1

KDM5B (1) = details: GST-tagged KDM5B (1); sheet Array Heatmap; each array performed twice, total n = 4
How it was run: as §1

KDM5B (3) = details: GST-tagged KDM5B (3); sheet Array Heatmap; each array performed twice, total n = 4
How it was run: as §1

KDM7A = details: GST-tagged KDM7A; sheet Array Heatmap; each array performed twice, total n = 4
How it was run: as §1

MLL5 = details: GST-tagged MLL5; sheet Array Heatmap; each array performed twice, total n = 4
How it was run: as §1

MORC3 (CW) = details: GST-tagged MORC3 (CW = CW-type Zn-finger); sheet Array Heatmap; each array performed twice, total n = 4
How it was run: as §1

PHF13 = details: GST-tagged PHF13; sheet Array Heatmap; each array performed twice, total n = 4
How it was run: as §1

PHF21A = details: GST-tagged PHF21A; sheet Array Heatmap; each array performed twice, total n = 4
How it was run: as §1

PHF23 = details: GST-tagged PHF23; sheet Array Heatmap; each array performed twice, total n = 4
How it was run: as §1

PHF2 = details: GST-tagged PHF2; sheet Array Heatmap; each array performed twice, total n = 4
How it was run: as §1

PHF8 = details: GST-tagged PHF8; sheet Array Heatmap; each array performed twice, total n = 4
How it was run: as §1

PHRF1 (RP) = details: GST-tagged PHRF1 (RP); sheet Array Heatmap; each array performed twice, total n = 4
How it was run: as §1

RAG2 = details: GST-tagged RAG2; sheet Array Heatmap; each array performed twice, total n = 4
How it was run: as §1

SP140L = details: GST-tagged SP140L; sheet Array Heatmap; each array performed twice, total n = 4
How it was run: as §1

TAF3 = details: GST-tagged TAF3; sheet Array Heatmap; each array performed twice, total n = 4
How it was run: as §1

TRIM66 (PB) = details: GST-tagged TRIM66 (PB = PHD + Bromodomain); sheet Array Heatmap; each array performed twice, total n = 4
How it was run: as §1

Substance | Array Heatmap signal (histone peptide microarray) (AIRE (PP)) | Array Heatmap signal (histone peptide microarray) (BAZ2B) | Array Heatmap signal (histone peptide microarray) (BPTF (PB)) | Array Heatmap signal (histone peptide microarray) (CHD4 (PPCC)) | Array Heatmap signal (histone peptide microarray) (CHD5 (PCC)) | Array Heatmap signal (histone peptide microarray) (CHD5 (PPCC)) | Array Heatmap signal (histone peptide microarray) (DIDO1) | Array Heatmap signal (histone peptide microarray) (DPF2 (PPC2W2)) | Array Heatmap signal (histone peptide microarray) (ING1) | Array Heatmap signal (histone peptide microarray) (ING2) | Array Heatmap signal (histone peptide microarray) (ING3) | Array Heatmap signal (histone peptide microarray) (ING4) | Array Heatmap signal (histone peptide microarray) (ING5) | Array Heatmap signal (histone peptide microarray) (KDM4C (TTP)) | Array Heatmap signal (histone peptide microarray) (KDM5A (1)) | Array Heatmap signal (histone peptide microarray) (KDM5A (3)) | Array Heatmap signal (histone peptide microarray) (KDM5B (1)) | Array Heatmap signal (histone peptide microarray) (KDM5B (3)) | Array Heatmap signal (histone peptide microarray) (KDM7A) | Array Heatmap signal (histone peptide microarray) (MLL5) | further results
H3K4ac + K14ac: H3 1-20 | 0.4945 | 0.8376 | 0.4507 | 0.5746 | 0.8648 | 0.5648 | 0.6468 | 0.6791 | 0.5034 | 0.6101 | 0.5142 | 0.4509 | 0.3447 | 0.505 | 0.4998 | 0.4971 | 0.6896 | 0.5625 | 0.4116 | 0.5464 | Array Heatmap signal (histone peptide microarray) (MORC3 (CW)): 0.433; Array Heatmap signal (histone peptide microarray) (PHF13): 0.6284; Array Heatmap signal (histone peptide microarray) (PHF21A): 0.4619; Array Heatmap signal (histone peptide microarray) (PHF23): 0.5688; Array Heatmap signal (histone peptide microarray) (PHF2): 0.5218; Array Heatmap signal (histone peptide microarray) (PHF8): 0.3555; Array Heatmap signal (histone peptide microarray) (PHRF1 (RP)): 0.5779; Array Heatmap signal (histone peptide microarray) (RAG2): 0.2771; Array Heatmap signal (histone peptide microarray) (SP140L): 0.3353; Array Heatmap signal (histone peptide microarray) (TAF3): 0.2918; Array Heatmap signal (histone peptide microarray) (TRIM66 (PB)): 0.6492
H3K4ac + K18ac: H3 1-20 | 0.4624 | 0.4765 | 0.3724 | 0.5623 | 0.8291 | 0.5589 | 0.6662 | 0.6503 | 0.5001 | 0.6077 | 0.5109 | 0.455 | 0.347 | 0.5036 | 0.4894 | 0.4876 | 0.6733 | 0.551 | 0.4179 | 0.5346 | Array Heatmap signal (histone peptide microarray) (MORC3 (CW)): 0.4359; Array Heatmap signal (histone peptide microarray) (PHF13): 0.6219; Array Heatmap signal (histone peptide microarray) (PHF21A): 0.4736; Array Heatmap signal (histone peptide microarray) (PHF23): 0.5594; Array Heatmap signal (histone peptide microarray) (PHF2): 0.5195; Array Heatmap signal (histone peptide microarray) (PHF8): 0.356; Array Heatmap signal (histone peptide microarray) (PHRF1 (RP)): 0.5224; Array Heatmap signal (histone peptide microarray) (RAG2): 0.291; Array Heatmap signal (histone peptide microarray) (SP140L): 0.3275; Array Heatmap signal (histone peptide microarray) (TAF3): 0.2831; Array Heatmap signal (histone peptide microarray) (TRIM66 (PB)): 0.6289
H3K4ac: H3 1-20 [Peptide H3K4ac] | 0.3833 | 0.4282 | 0.3314 | 0.511 | 0.7194 | 0.5057 | 0.6919 | 0.663 | 0.5138 | 0.6074 | 0.4516 | 0.4245 | 0.3289 | 0.4265 | 0.429 | 0.4174 | 0.5705 | 0.4727 | 0.3036 | 0.5593 | Array Heatmap signal (histone peptide microarray) (MORC3 (CW)): 0.3459; Array Heatmap signal (histone peptide microarray) (PHF13): 0.5951; Array Heatmap signal (histone peptide microarray) (PHF21A): 0.424; Array Heatmap signal (histone peptide microarray) (PHF23): 0.5477; Array Heatmap signal (histone peptide microarray) (PHF2): 0.603; Array Heatmap signal (histone peptide microarray) (PHF8): 0.3449; Array Heatmap signal (histone peptide microarray) (PHRF1 (RP)): 0.4419; Array Heatmap signal (histone peptide microarray) (RAG2): 0.2316; Array Heatmap signal (histone peptide microarray) (SP140L): 0.3065; Array Heatmap signal (histone peptide microarray) (TAF3): 0.248; Array Heatmap signal (histone peptide microarray) (TRIM66 (PB)): 0.5857
